Calls of active or inactive are those of the source. No cut-off for these calls is given here.
Experiments:
[1] = target: T1, KCNMA1/KCNMB4 (Rattus norvegicus) (UniProt Q62976+Q9ESK8); assay: Inhibition of BK alpha/beta-4 in PTZ-stimulated rat hippocampal pyramidal neurons assessed as slower decay of after hyperpolarization at 300 pA at -80mV holding potential measured after 10 mins by whole cell current clamp assay; format: protein-complex assay
[2] = organism: Rattus norvegicus; assay: (§1) Inhibition of C-Fos expression in PTZ-induced epileptic seizures Sprague-Dawley rat model assessed as inhibition of FLI-positive granular neurons in DG region of contralateral hippocampus at 10 uM compound infused into hippocampal region and 10 mins later injected with PTZ and measured after 2 hrs by immunohistochemistry; format: functional, organism-based
[3] = target: T1, KCNMA1/KCNMB4 (Rattus norvegicus); assay: Inhibition of BK alpha/beta-4 in PTZ-stimulated rat hippocampal pyramidal neurons assessed as larger action potential width at 300 pA current injection at -80mV holding potential measured after 10 mins by whole cell current clamp assay; format: protein-complex assay
[4] = organism: Homo sapiens; assay: Inhibition of human BK alpha/human beta-4 E128K mutant expressed in HEK293T cells assessed as K+ fractional outward current at 10 uM at -80 mV holding potential by whole cell patch clamp technique relative to control; format: cell-based
[5] = organism: Rattus norvegicus; assay: (§2) Neuroprotective activity in PTZ-induced epileptic seizure Sprague-Dawley rat model assessed as inhibition of hippocampal destruction by measuring increase in Nissl stained pyramidal neurons in contralateral hippocampus CA3 region compound infused into hippocampal region and 10 mins later injected with PTZ and measured after 3 days by Nissl staining based microscopic analysis; format: functional, organism-based
[6] = target: T1, KCNMA1/KCNMB4 (Rattus norvegicus); assay: Inhibition of BK alpha/beta-4 in rat hippocampal pyramidal neurons assessed as inhibition of PTZ-induced action potential at -80 mV holding potential at 300 pA current injection measured after 10 mins by whole cell current clamp assay
[7] = organism: Rattus norvegicus; assay: Effect on neuronal network in PTZ-induced epileptic seizures Sprague-Dawley rat model assessed as lowered PSD at alpha wave band compound infused into hippocampal region and 10 mins later injected with PTZ and measured after 2 hrs by power spectral density analysis; format: functional, organism-based
[8] = target: T2, KCNMA1/KCNMB4 (Homo sapiens, UniProt Q12791+Q86W47); assay: Inhibition of human BK alpha/beta4 channel expressed in HEK293T cells assessed as K+ outward current fraction at 10 uM at -80 mV holding potential by whole cell patch clamp method relative to control; format: cell-based
[9] = target: Calcium-activated potassium channel subunit beta-4 (Homo sapiens, UniProt Q86W47, Q124A); assay: Binding affinity to NT-495 fluorophore reagent labelled human BK beta4 Q124A mutant incubated for 30 mins by microscale thermophoresis assay
[10] = organism: Rattus norvegicus; assay: as §2, with “granular” for “pyramidal”, “DG” for “CA3”; format: functional, organism-based
[11] = organism: Rattus norvegicus; assay: as §2, with “CA1” for “CA3”; format: functional, organism-based
[12] = organism: Homo sapiens; assay: Selectivity ratio of compound Kd for NT-495 fluorophore reagent labelled human BK beta4 Q124A mutant to compound Kd for NT-495 fluorophore reagent labelled human BK beta4 (45 to 166 residues) by microscale thermophoresis assay
[13] = organism: Homo sapiens; assay: Inhibition of human BK alpha/human beta4 Q124A mutant expressed in HEK293T cells assessed as K+ fractional outward current at 10 uM at -80 holding potential by whole cell patch clamp technique relative to control; format: cell-based
[14] = target: T2, KCNMA1/KCNMB4; assay: Inhibition of human BK alpha/beta4 channel expressed in HEK293T cells assessed as inhibition of K+ outward current fraction at -80 mV holding potential by whole cell patch clamp technique; format: cell-based
[15] = organism: Rattus norvegicus; assay: as §2, with “ipsilateral” for “contralateral”, “CA1” for “CA3”; format: functional, organism-based
[16] = organism: Rattus norvegicus; assay: as §1, with “ipsilateral” for “contralateral”; format: functional, organism-based
[17] = organism: Rattus norvegicus; assay: as §2, with “granular” for “pyramidal”, “ipsilateral” for “contralateral”, “DG” for “CA3”; format: functional, organism-based
[18] = organism: Homo sapiens; assay: Selectivity ratio of compound Kd for NT-495 fluorophore reagent labelled human BK beta4 E104K mutant to compound Kd for NT-495 fluorophore reagent labelled human BK beta4 (45 to 166 residues) by microscale thermophoresis assay
[19] = target: T1, KCNMA1/KCNMB4 (Rattus norvegicus); assay: Inhibition of BK alpha/beta-4 in PTZ-stimulatedrat hippocampal pyramidal neurons assessed as reduction in neuronal firing rate at -80mV holding potential in presence of 200 to 300 pA current injection measured after 10 mins by whole cell current clamp assay; format: protein-complex assay
[20] = organism: Rattus norvegicus; assay: as §1, with “pyramidal” for “granular”, “CA3” for “DG”; format: functional, organism-based
[21] = target: Calcium-activated potassium channel subunit beta-4 (Homo sapiens, UniProt Q86W47, E104K); assay: Binding affinity to NT-495 fluorophore reagent labelled human BK beta4 E104K mutant incubated for 30 mins by microscale thermophoresis assay
[22] = organism: Rattus norvegicus; assay: as §1, with “pyramidal” for “granular”, “CA1” for “DG”, “ipsilateral” for “contralateral”; format: functional, organism-based
[23] = organism: Rattus norvegicus; assay: Effect on neuronal network in PTZ-induced epileptic seizures Sprague-Dawley rat model assessed as lowered PSD at beta wave band compound infused into hippocampal region and 10 mins later injected with PTZ and measured after 2 hrs by power spectral density analysis; format: functional, organism-based
[24] = organism: Rattus norvegicus; assay: Anticonvulsant activity against PTZ-induced epileptic seizure Sprague-Dawley rat model assessed as duration of seizure compound infused into hippocampal region and 10 mins later injected with PTZ and measured for 2 hrs post PTZ-stimulation (reference value: 376 +/- 76.43 sec); format: functional
[25] = system: T3, Calcium-activated potassium channel subunit beta-4 (Homo sapiens), Q86W47 [E122K]; assay: Binding affinity to NT-495 fluorophore reagent labelled human BK beta4 E122K mutant incubated for 30 mins by microscale thermophoresis assay
T3 sequence (whole entry): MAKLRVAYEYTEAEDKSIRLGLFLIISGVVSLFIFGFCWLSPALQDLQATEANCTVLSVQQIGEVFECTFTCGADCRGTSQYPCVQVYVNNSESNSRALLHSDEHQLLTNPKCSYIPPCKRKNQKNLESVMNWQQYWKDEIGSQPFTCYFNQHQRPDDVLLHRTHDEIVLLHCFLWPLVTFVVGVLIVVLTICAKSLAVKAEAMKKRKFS

[26] = organism: Rattus norvegicus; assay: Inhibition of field potential response in PTZ-induced epileptic seizure Sprague-Dawley rat model compound infused into hippocampal region and 10 mins later injected with PTZ and measured after 2 hrs by microarray electrode based analysis; format: functional, organism-based
[27] = organism: Rattus norvegicus; assay: Effect on neuronal network in PTZ-induced epileptic seizures Sprague-Dawley rat model assessed as reduced total PSD frequency waves compound infused into hippocampal region and 10 mins later injected with PTZ and measured after 2 hrs by power spectral density analysis; format: functional, organism-based
[28] = organism: Rattus norvegicus; assay: Effect on neuronal network in PTZ-induced epileptic seizures Sprague-Dawley rat model assessed as lowered PSD at theta wave band compound infused into hippocampal region and 10 mins later injected with PTZ and measured after 2 hrs by power spectral density analysis; format: functional, organism-based
[29] = organism: Rattus norvegicus; assay: Anticonvulsant activity against PTZ-induced epileptic seizure Sprague-Dawley rat model assessed as latency time of seizures compound infused into hippocampal region and 10 mins later injected with PTZ and measured for 2 hrs post PTZ-stimulation (reference value: 108.5 +/- 8.63 sec); format: functional

Chain of Calcium-activated potassium channel subunit beta-4 (Homo sapiens, UniProt Q86W47, E104K) (Q86W47 whole entry E104K): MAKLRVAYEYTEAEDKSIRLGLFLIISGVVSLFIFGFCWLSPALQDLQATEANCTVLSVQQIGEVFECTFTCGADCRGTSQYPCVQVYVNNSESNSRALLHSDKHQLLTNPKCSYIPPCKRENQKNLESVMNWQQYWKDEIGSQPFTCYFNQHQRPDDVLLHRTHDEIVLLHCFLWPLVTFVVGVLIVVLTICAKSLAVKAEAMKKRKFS
Chain of Calcium-activated potassium channel subunit beta-4 (Homo sapiens, UniProt Q86W47, Q124A) (Q86W47 whole entry Q124A): as the sequence (Q86W47 whole entry E104K) above, with K104E, Q124A counted along it
T2 sequence (Q12791 whole entry): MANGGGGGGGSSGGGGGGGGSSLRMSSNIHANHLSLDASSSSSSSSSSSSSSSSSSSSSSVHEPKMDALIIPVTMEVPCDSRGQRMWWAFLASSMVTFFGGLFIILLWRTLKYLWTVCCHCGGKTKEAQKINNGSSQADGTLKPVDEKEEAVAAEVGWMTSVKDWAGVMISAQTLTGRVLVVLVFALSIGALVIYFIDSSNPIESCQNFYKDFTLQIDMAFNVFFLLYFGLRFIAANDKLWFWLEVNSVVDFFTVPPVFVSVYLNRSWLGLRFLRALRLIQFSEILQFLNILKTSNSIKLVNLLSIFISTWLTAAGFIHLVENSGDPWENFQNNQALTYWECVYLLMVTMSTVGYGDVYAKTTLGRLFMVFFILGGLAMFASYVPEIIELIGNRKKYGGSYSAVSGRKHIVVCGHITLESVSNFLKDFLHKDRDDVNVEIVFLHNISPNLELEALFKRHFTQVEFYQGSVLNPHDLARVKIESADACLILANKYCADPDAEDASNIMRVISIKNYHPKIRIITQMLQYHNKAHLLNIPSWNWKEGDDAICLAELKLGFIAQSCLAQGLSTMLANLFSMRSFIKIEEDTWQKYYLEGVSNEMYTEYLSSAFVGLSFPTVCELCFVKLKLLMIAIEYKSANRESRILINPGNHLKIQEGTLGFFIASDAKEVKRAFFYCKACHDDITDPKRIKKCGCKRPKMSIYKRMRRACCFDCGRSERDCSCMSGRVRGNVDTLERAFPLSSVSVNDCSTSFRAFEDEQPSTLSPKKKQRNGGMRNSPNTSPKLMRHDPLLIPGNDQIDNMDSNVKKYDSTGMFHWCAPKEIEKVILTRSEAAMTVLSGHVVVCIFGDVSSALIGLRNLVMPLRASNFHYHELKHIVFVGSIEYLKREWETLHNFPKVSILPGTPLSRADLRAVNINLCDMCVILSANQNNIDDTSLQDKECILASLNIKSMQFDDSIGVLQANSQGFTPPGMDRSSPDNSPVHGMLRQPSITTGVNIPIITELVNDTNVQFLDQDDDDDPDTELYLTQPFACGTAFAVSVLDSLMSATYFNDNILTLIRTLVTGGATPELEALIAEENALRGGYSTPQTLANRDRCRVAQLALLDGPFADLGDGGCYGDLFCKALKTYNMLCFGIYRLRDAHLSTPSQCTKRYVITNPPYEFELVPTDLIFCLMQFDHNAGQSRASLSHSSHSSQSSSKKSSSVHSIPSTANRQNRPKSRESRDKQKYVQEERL
T2 sequence (Q86W47 whole entry): as the sequence (Q86W47 whole entry E104K) above, with K104E counted along it

**Q.** How did the inhibition [1] turn out when CC[C@H](C)[C@H](NC(=O)[C@H](CC(C)C)NC(=O)CNC(=O)[C@H](Cc1ccccc1)NC(=O)[C@H](CO)NC(=O)CN)C(=O)N[C@@H](CC(=O)O)C(=O)N[C@H](C(=O)N[C@@H](CCCCN)C(=O)N[C@H]1CSSC[C@@H]2NC(=O)[C@H](CCCCN)NC(=O)CNC(=O)[C@H](CCC(N)=O)NC(=O)CNC(=O)[C@H](CO)NC(=O)CNC(=O)[C@H]([C@@H](C)O)NC(=O)[C@H](C(C)C)NC(=O)[C@H](CCCCN)NC(=O)[C@H](CCCCN)NC(=O)[C@@H]3CSSC[C@@H](C(=O)N[C@@H](Cc4ccc(O)cc4)C(=O)O)N[C@@H](CCCNC(=N)N)C(=O)[C@H](CSSC[C@H](NC(=O)[C@H](CCC(=O)O)NC(=O)[C@H](CO)NC(=O)[C@H](CO)NC(=O)[C@H](C)NC(=O)[C@H](Cc4ccccc4)NC1=O)C(=O)N[C@@H](Cc1c[nH]c4ccccc14)C(=O)N[C@@H]([C@@H](C)O)C(=O)N[C@@H](C)C(=O)N3)N[C@@H](CCC(N)=O)C(=O)NC(=O)[C@H](CC(N)=O)NC(=O)[C@H](CC(N)=O)NC(=O)[C@H](CCC(N)=O)NC2=O)C(C)C was run?
**A.** Active

**Q.** And the inhibition [2]?
**A.** Active

**Q.** And the inhibition [3]?
**A.** Active

**Q.** What about the Ratio [4] of the same compound?
**A.** 0.75

**Q.** What about the Activity [5] of the same compound?
**A.** Active

**Q.** What about the inhibition [6] of the same compound?
**A.** Active

**Q.** And the Activity [7]?
**A.** Active

**Q.** And the Ratio [8]?
**A.** 0.33

**Q.** What about the Kd [9] of the same compound?
**A.** 975 µM

**Q.** And the Activity [10]?
**A.** Active

**Q.** And the Activity [11]?
**A.** Active

**Q.** And the Selectivity ratio [12]?
**A.** 2

**Q.** What about the Ratio [13] of the same compound?
**A.** 0.6

**Q.** What about the IC50 [14] of the same compound?
**A.** 0.602 µM

**Q.** What about the Activity [15] of the same compound?
**A.** Active

**Q.** And the inhibition [16]?
**A.** Active

**Q.** What about the Activity [17] of the same compound?
**A.** Active

**Q.** And the Selectivity ratio [18]?
**A.** 1.4

**Q.** What about the inhibition [19] of the same compound?
**A.** Active

**Q.** What about the inhibition [20] of the same compound?
**A.** Active

**Q.** What about the Kd [21] of the same compound?
**A.** 782 µM

**Q.** And the inhibition [22]?
**A.** Active

**Q.** What about the Activity [23] of the same compound?
**A.** Active

**Q.** What about the Time [24] of the same compound?
**A.** 198 s

**Q.** What about the Activity [25] of the same compound?
**A.** inactive

**Q.** And the inhibition [26]?
**A.** Active

**Q.** And the inhibition [27]?
**A.** Active

**Q.** And the Activity [28]?
**A.** Active

**Q.** And the Time [29]?
**A.** 378.5 s

Source: ChEMBL document CHEMBL4354835, “Selective Blockade of Neuronal BK (α + β4) Channels Preventing Epileptic Seizure” (J Med Chem, 2020)
